Measured values: US11071300B2, “Pesticidally active pyrazole derivatives” (SYNGENTA PARTICIPATIONS AG, priority 2017, dated 2021)
Read-outs that look alike come from different tables or passages of the source.

Tests used:
Format in all cases: in vivo
[1] = tested on: Diabrotica Balteata; assay: Diabrotica balteata (corn root worm) maize sprout test; settings: 96 h, read-out: control (mortality and growth inhibition)
Procedure: Diabrotica Balteata, (Corn Root Worm)
Maize sprouts, placed on an agar layer in 24-well microtiter plates were treated with aqueous test solutions prepared from 10′000 ppm DMSO stock solutions by spraying. After drying, the plates were infested with L2 larvae (6 to 10 per well). The samples were assessed for mortality and growth inhibition in comparison to untreated samples 4 days after infestation.

[2] = tested on: Myzus persicae; assay: Myzus persicae (green peach aphid) leaf disc test; settings: foliar, 144 h, read-out: control (mortality)
Procedure: Myzus persicae (Green Peach Aphid):
Sunflower leaf discs were placed on agar in a 24-well microtiter plate and sprayed with test solutions at an application rate of 200 ppm. After drying, the leaf discs were infested with an aphid population of mixed ages. After an incubation period of 6 DAT, samples were checked for mortality.

[3] = tested on: Thrips tabaci; assay: Thrips tabaci (onion thrips) leaf disc test; settings: foliar, 144 h, read-out: control (mortality)
Procedure: Thrips tabaci (Onion Thrips):
(§1) Sunflower leaf discs were placed on agar in 24-well microtiter plates and sprayed with aqueous test solutions prepared from 10′000 ppm DMSO stock solutions. After drying the leaf discs were infested with a thrips population of mixed ages. The samples were assessed for mortality 6 days after infestation.

[4] = tested on: Plutella xylostella; assay: Plutella xylostella (diamond back moth) artificial diet test; settings: 120 h, read-out: control (mortality and growth inhibition)
Procedure: Plutella xylostella (Diamond Back Moth):
24-well microtiter plates with artificial diet were treated with aqueous test solutions prepared from 10′000 ppm DMSO stock solutions by pipetting. After drying, the plates were infested with L2 larvae (10 to 15 per well). The samples were assessed for mortality and growth inhibition in comparison to untreated samples 5 days after infestation.

[5] = tested on: Spodoptera littoralis; assay: Spodoptera littoralis (Egyptian cotton leaf worm) leaf disc test; settings: foliar, 72 h, application rate 200 ppm, cotton leaf discs sprayed, L1 larvae, 3 days after infestation, read-out: control (at least one of mortality, anti-feedant effect, growth inhibition)
Procedure: Spodoptera littoralis (Egyptian Cotton Leaf Worm)
Cotton leaf discs were placed on agar in 24-well microtiter plates and sprayed with aqueous test solutions prepared from 10′000 ppm DMSO stock solutions. After drying the leaf discs were infested with five L1 larvae. The samples were assessed for mortality, anti-feedant effect, and growth inhibition in comparison to untreated samples 3 days after infestation. Control of Spodoptera littoralis by a test sample is when at least one of mortality, anti-feedant effect, and growth inhibition is higher than the untreated sample.

[6] = tested on: Tetranychus urticae; assay: Tetranychus urticae (two-spotted spider mite) leaf disc test; settings: foliar, 192 h, application rate 200 ppm, bean leaf discs sprayed, 8 days after infestation, read-out: control (mortality on mixed population, mobile stages)
Procedure: Tetranychus urticae (Two-Spotted Spider Mite):
as §1, with “Bean” for “Sunflower”, “discs” for “discs were placed”, “were” for “and”, “mite” for “thrips”, “on mixed population (mobile stages) 8” for “6”

[7] = application rate 200 ppm, sunflower leaf discs sprayed, mixed ages, 6 days after infestation
[8] = application rate 200 ppm, artificial diet, L2 larvae, 5 days after infestation
[9] = application rate 200 ppm, maize sprouts sprayed, L2 larvae, 4 days after infestation
[10] = application rate 200 ppm, sunflower leaf discs sprayed, mixed ages, 6 DAT

CCN(C(=O)c1cc(-c2cc(-c3c(C(F)(F)F)c(OS(=O)(=O)C(F)(F)C(F)(F)C(F)(F)C(F)(F)F)nn3C)no2)ccc1Cl)C1CC1 [Compound 41, [5-[5-[4-chloro-3-[cyclopropyl(ethyl)carbamoyl]phenyl]isoxazol-3-yl]-1-methyl-4-(trifluoromethyl)pyrazol-3-yl] 1,1,2,2,3,3,4,4,4-nonafluorobutane-1-sulfonate]
≥ 80%: mortality at 200 ppm [1] | mortality at 200 ppm [2]

CN(C(=O)c1cc(-c2cnn(-c3c(C(F)(F)F)c(OS(=O)(=O)C(F)(C(F)(F)F)C(F)(F)F)nn3C)c2)ccc1Cl)C1CC1 [Compound 17, [5-[4-[4-chloro-3-[cyclopropyl(methyl)carbamoyl]phenyl]pyrazol-1-yl]-1-methyl-4-(trifluoromethyl)pyrazol-3-yl] 1,1,1,2,3,3,3-heptafluoropropane-2-sulfonate]
≥ 80%: mortality at 200 ppm [3, 7] | mortality at 200 ppm [4, 8] | mortality at 200 ppm [1, 9] | mortality at 200 ppm [2, 10] | percent control (mortality, anti-feedant effect or growth inhibition) at 200 ppm [5] | mortality at 200 ppm [6]

CN(C(=O)c1cc(-c2cnn(-c3c(C(F)(F)F)c(OS(=O)(=O)C(F)(F)C(F)(F)Cl)nn3C)c2)ccc1Cl)C1(C#N)CC1 [Compound 19, [5-[4-[4-chloro-3-[(1-cyanocyclopropyl)-methyl-carbamoyl]phenyl]pyrazol-1-yl]-1-methyl-4-(trifluoromethyl)pyrazol-3-yl] 2-chloro-1,1,2,2-tetrafluoro-ethanesulfonate]
≥ 80%: mortality at 200 ppm [3, 7] | mortality at 200 ppm [4, 8] | mortality at 200 ppm [1, 9] | mortality at 200 ppm [2, 10] | percent control (mortality, anti-feedant effect or growth inhibition) at 200 ppm [5] | mortality at 200 ppm [6]

Cn1nc(OS(=O)(=O)C(F)(F)C(F)(F)C(F)(F)C(F)(F)F)c(C(F)(F)F)c1-n1cc(-c2cnc(Cl)c(C(=O)NC3CC3)c2)cn1 [Compound 27, [5-[4-[6-chloro-5-(cyclopropylcarbamoyl)-3-pyridyl]pyrazol-1-yl]-1-methyl-4-(trifluoromethyl)pyrazol-3-yl] 1,1,2,2,3,3,4,4,4-nonafluorobutane-1-sulfonate]
≥ 80%: mortality at 200 ppm [3] | mortality at 200 ppm [4] | mortality at 200 ppm [1] | mortality at 200 ppm [2] | percent control (mortality, anti-feedant effect or growth inhibition) at 200 ppm [5]

CCN(C(=O)c1cc(-c2cnn(-c3c(C(F)(F)F)c(OS(=O)(=O)C(F)(F)C(F)(F)C(F)(F)C(F)(F)F)nn3C)c2)cnc1Cl)C1CC1 [Compound 29, [5-[4-[6-chloro-5-[cyclopropyl(ethyl)carbamoyl]-3-pyridyl]pyrazol-1-yl]-1-methyl-4-(trifluoromethyl)pyrazol-3-yl] 1,1,2,2,3,3,4,4,4-nonafluorobutane-1-sulfonate]
≥ 80%: mortality at 200 ppm [4] | mortality at 200 ppm [1] | mortality at 200 ppm [2]

CN(C(=O)c1cc(-c2cnn(-c3c(C(F)(F)F)c(OS(=O)(=O)C(F)(C(F)(F)F)C(F)(F)F)nn3C)c2)cnc1Cl)C1CC1 [Compound 22, [5-[4-[6-chloro-5-[cyclopropyl(methyl)carbamoyl]-3-pyridyl]pyrazol-1-yl]-1-methyl-4-(trifluoromethyl)pyrazol-3-yl] 1,1,1,2,3,3,3-heptafluoropropane-2-sulfonate]
≥ 80%: mortality at 200 ppm [3, 7] | mortality at 200 ppm [4, 8] | mortality at 200 ppm [1, 9] | mortality at 200 ppm [2, 10] | percent control (mortality, anti-feedant effect or growth inhibition) at 200 ppm [5] | mortality at 200 ppm [6]

CCN(C(=O)c1cc(-c2cnn(-c3c(C(F)(F)F)c(OS(=O)(=O)C(F)(F)C(F)(F)F)nn3C)c2)ccc1Cl)C1CC1 [Compound 14, [5-[4-[4-chloro-3-[cyclopropyl(ethyl)carbamoyl]phenyl]pyrazol-1-yl]-1-methyl-4-(trifluoromethyl)pyrazol-3-yl] 1,1,2,2,2-pentafluoroethanesulfonate]
≥ 80%: mortality at 200 ppm [3, 7] | mortality at 200 ppm [4, 8] | mortality at 200 ppm [1, 9] | mortality at 200 ppm [2, 10] | percent control (mortality, anti-feedant effect or growth inhibition) at 200 ppm [5]

Cn1nc(OS(=O)(=O)C(F)(F)C(F)(F)Cl)c(C(F)(F)F)c1-n1cc(-c2ccc(Cl)c(C(=O)NC3(C#N)CC3)c2)cn1 [Compound 8, [5-[4-[4-chloro-3-[(1-cyanocyclopropyl)carbamoyl]phenyl]pyrazol-1-yl]-1-methyl-4-(trifluoromethyl)pyrazol-3-yl] 2-chloro-1,1,2,2-tetrafluoro-ethanesulfonate]
≥ 80%: mortality at 200 ppm [3, 7] | mortality at 200 ppm [4, 8] | mortality at 200 ppm [1, 9] | mortality at 200 ppm [2, 10] | percent control (mortality, anti-feedant effect or growth inhibition) at 200 ppm [5] | mortality at 200 ppm [6]

Cn1nc(OS(=O)(=O)C(F)(C(F)(F)F)C(F)(F)F)c(C(F)(F)F)c1-n1cc(-c2ccc(Cl)c(C(=O)NC3(C(F)F)CC3)c2)cn1 [Compound 64, [5-[4-[4-chloro-3-[[1-(difluoromethyl)cyclopropyl]carbamoyl]phenyl]pyrazol-1-yl]-1-methyl-4-(trifluoromethyl)pyrazol-3-yl] 1,1,1,2,3,3,3-heptafluoropropane-2-sulfonate]
≥ 80%: mortality at 200 ppm [4, 8] | mortality at 200 ppm [2, 10] | percent control (mortality, anti-feedant effect or growth inhibition) at 200 ppm [5] | mortality at 200 ppm [6]

CCN(C(=O)c1cc(-c2cnn(-c3c(C(F)(F)F)c(OS(=O)(=O)C(F)(C(F)(F)F)C(F)(F)F)nn3C)c2)cnc1Cl)C1(C#N)CC1 [Compound 26, [5-[4-[6-chloro-5-[(1-cyanocyclopropyl)-ethyl-carbamoyl]-3-pyridyl]pyrazol-1-yl]-1-methyl-4-(trifluoromethyl)pyrazol-3-yl] 1,1,1,2,3,3,3-heptafluoropropane-2-sulfonate]
≥ 80%: mortality at 200 ppm [3, 7] | mortality at 200 ppm [4, 8] | mortality at 200 ppm [1, 9] | mortality at 200 ppm [2, 10] | percent control (mortality, anti-feedant effect or growth inhibition) at 200 ppm [5] | mortality at 200 ppm [6]

CCN(C(=O)c1cc(-c2cnn(-c3c(C(F)(F)F)c(OS(=O)(=O)C(F)(C(F)(F)F)C(F)(F)F)nn3C)c2)cnc1Cl)C1CC1 [Compound 23, [5-[4-[6-chloro-5-[cyclopropyl(ethyl)carbamoyl]-3-pyridyl]pyrazol-1-yl]-1-methyl-4-(trifluoromethyl)pyrazol-3-yl] 1,1,1,2,3,3,3-heptafluoropropane-2-sulfonate]
≥ 80%: mortality at 200 ppm [4, 8] | mortality at 200 ppm [1, 9] | mortality at 200 ppm [2, 10] | percent control (mortality, anti-feedant effect or growth inhibition) at 200 ppm [5] | mortality at 200 ppm [6]

CCN(C(=O)c1cc(-c2cnn(-c3c(C(F)(F)F)c(OS(=O)(=O)C(F)(F)C(F)(F)Cl)nn3C)c2)ccc1Cl)C1CC1 [Compound 10, [5-[4-[4-chloro-3-[cyclopropyl(ethyl)carbamoyl]phenyl]pyrazol-1-yl]-1-methyl-4-(trifluoromethyl)pyrazol-3-yl] 2-chloro-1,1,2,2-tetrafluoro-ethanesulfonate]
≥ 80%: mortality at 200 ppm [3, 7] | mortality at 200 ppm [4, 8] | mortality at 200 ppm [1, 9] | mortality at 200 ppm [2, 10] | percent control (mortality, anti-feedant effect or growth inhibition) at 200 ppm [5] | mortality at 200 ppm [6]
